One data set has as its target T1, hTLR7 (Homo sapiens, UniProt Q9NYK1).
T1 construct: expressed in transfected cells; host or cells: HEK-Blue hTLR cells
T1 sequence (Q9NYK1 27-1049): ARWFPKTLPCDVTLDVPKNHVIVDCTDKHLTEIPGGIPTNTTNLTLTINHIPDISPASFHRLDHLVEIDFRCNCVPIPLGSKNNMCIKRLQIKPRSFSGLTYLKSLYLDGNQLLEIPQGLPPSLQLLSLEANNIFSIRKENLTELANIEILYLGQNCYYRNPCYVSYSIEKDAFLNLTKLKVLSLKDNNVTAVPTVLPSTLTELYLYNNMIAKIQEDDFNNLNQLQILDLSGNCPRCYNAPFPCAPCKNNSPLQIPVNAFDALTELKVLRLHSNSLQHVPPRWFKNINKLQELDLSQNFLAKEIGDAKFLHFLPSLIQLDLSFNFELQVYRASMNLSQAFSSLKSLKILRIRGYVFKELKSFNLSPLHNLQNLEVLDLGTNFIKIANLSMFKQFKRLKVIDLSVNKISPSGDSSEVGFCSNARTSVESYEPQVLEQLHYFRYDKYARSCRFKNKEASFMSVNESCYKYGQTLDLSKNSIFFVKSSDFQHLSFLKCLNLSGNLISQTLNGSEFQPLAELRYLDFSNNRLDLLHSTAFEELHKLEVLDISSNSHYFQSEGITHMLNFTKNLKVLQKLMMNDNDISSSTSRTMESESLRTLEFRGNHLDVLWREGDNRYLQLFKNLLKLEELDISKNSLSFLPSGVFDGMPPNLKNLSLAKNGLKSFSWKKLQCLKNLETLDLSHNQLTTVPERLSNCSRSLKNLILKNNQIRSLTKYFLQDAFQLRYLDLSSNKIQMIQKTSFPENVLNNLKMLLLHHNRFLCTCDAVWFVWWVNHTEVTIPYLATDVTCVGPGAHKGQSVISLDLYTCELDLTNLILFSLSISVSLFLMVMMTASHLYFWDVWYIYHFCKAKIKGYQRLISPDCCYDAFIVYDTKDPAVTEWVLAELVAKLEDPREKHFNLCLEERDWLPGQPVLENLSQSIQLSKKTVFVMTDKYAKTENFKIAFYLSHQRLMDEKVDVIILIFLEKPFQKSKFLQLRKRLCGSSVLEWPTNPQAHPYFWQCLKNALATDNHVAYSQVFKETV
The data set is described as follows: agonistic activity on hTLR7, HEK-Blue hTLR cells, SEAP reporter (QUANTI-Blue). Type of data set: cell-based. Particulars: for TLR 7 selectivity TLR 8/TLR 7: ratio of TLR 8 EC50 to TLR 7 EC50. The protocol: (§1) Experiments on the agonistic activity of TLR7 and TLR8 by the compounds in vitro
(§2) The compound was diluted with 1:3 series with DMSO for 9 concentration points, duplicated wells, and added to 96-well plate with Echo.
(§3) The HEK-Blue™ hTLR cells were suspended in the culture medium and then seeded into a 96-well plate containing the compound at a density of 50,000 cells/well. Cells were cultured at 5% CO2 and 37° C. for 1 day. The final concentration of DMSO in the cell culture medium was 0.5%.
(§4) 20 uL cell culture supernatant was taken, according to the QUANTI-Blue instructions, the reporter gene SEAP in the supernatant was detected, and the OD650 signal value was read with a microplate reader to calculate the agonist activity of the compound on the hTLR7 and hTLR8.
(§5) The EC50 and CC50 values of the compound were calculated by GraphPad Prism software, and the fitting curve was plotted.

The target in another data set is T2, hTLR8 (Homo sapiens, UniProt Q9NR97).
T2 construct: expressed in transfected cells; host or cells: HEK-Blue hTLR cells
T2 sequence (Q9NR97 27-1041): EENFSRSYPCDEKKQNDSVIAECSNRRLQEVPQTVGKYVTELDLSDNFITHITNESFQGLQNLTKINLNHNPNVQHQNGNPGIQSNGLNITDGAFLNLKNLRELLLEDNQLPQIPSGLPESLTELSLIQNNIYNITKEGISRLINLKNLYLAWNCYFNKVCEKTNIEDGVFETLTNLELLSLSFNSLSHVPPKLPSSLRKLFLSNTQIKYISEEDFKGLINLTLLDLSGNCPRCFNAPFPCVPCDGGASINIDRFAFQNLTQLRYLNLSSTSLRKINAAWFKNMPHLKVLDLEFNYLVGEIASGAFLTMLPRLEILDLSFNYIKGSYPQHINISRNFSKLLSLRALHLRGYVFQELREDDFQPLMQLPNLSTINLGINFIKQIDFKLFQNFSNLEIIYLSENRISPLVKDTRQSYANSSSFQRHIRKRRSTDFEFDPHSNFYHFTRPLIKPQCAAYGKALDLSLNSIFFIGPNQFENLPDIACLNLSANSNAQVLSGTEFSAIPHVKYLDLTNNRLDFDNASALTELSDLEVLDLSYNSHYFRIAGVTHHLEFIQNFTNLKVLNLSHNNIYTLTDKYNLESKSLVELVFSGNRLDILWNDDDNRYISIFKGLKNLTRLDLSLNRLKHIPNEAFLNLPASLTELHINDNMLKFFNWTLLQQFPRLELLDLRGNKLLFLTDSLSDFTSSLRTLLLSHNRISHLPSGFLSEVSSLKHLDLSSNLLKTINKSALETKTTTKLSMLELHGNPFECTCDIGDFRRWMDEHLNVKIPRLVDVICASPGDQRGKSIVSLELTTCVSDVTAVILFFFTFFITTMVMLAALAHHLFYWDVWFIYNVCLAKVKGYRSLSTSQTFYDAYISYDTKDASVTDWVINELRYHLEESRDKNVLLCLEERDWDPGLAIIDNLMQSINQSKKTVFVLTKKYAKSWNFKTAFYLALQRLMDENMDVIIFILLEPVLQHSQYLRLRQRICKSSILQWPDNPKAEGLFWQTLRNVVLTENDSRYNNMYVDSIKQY
The data set is described as follows: agonistic activity on hTLR8, HEK-Blue hTLR cells, SEAP reporter (QUANTI-Blue). Format: cell-based. Particulars: for EC50: SEAP reporter, OD650, cultured 1 day; for TLR 8 selectivity TLR 7/TLR 8: ratio of TLR 7 EC50 to TLR 8 EC50. The protocol:
as §1, §2, §3, §4, §5

A short description of data set [1]: cytotoxicity, cell viability by CellTiter-Glo. Format: cell-based, human. As to conditions: human, HEK-Blue hTLR cells, cultured 1 day. The protocol: as §2, §3
According to the CellTiter-Glo instructions, the cell viability was measured, and the Luminescence signal value was read by the microplate reader, which was used to calculate the cytotoxicity of the compound.
as §5
On the technique in general: ATP-based viability assays read luminescence as a measure of living cells.

Where [2] appears, read: HEK-Blue hTLR cells, SEAP reporter, OD650, cultured 1 day, read-out: TLR 7 EC50.
Setting [3] is: HEK-Blue hTLR cells, read-out: TLR 8 EC50.
Where [4] appears, read: TLR 8 EC50, HEK-Blue hTLR cells.

The structures appear in SMILES notation. Where two headings read alike, the source gives them in different places.

Usually EC50 stands for the concentration that produces a half-maximal response. For orientation: CC50 means the concentration giving 50% cytotoxicity. Read a high CC50 as lower toxicity to the cells. As to `CCOCc1nc2c(N)nc3ccccc3c2n1C[C@@H](C)O[P@@](=O)(N[C@@H](C)C(=O)OC(C)C)Oc1cccc2ccccc12` (single isomer, unassigned) [Example 5A], the figures for the concentration giving a half-maximal response (EC50) on hTLR7 (setting [2]) and at hTLR8 (setting [3]) were over 10000 nM and 9.2 nM, respectively. For the same compound, the “TLR 8 selectivity TLR 7/TLR 8” value on hTLR8 is over 1086. Moreover, the midpoint of cytotoxicity in data set [1], the CC50 at 1 day, lay at 17900 nM.
Turning to `CCOCc1nc2c(N)nc3ccccc3c2n1C[C@@H](C)O[P@@](=O)(N[C@@H](C)C(=O)OC(C)(C)C)Oc1ccc(OC)cc1` (single isomer, unassigned) [Example 18A], the results for the EC50 at hTLR7 (setting [2]) and on hTLR8 (setting [3]) were over 30000 nM and 203 nM, respectively. The “TLR 8 selectivity TLR 7/TLR 8” value on hTLR8 is over 148. In data set [1], this compound displayed a half-maximal cytotoxic concentration (CC50) at 1 day of over 30000 nM.
Take `CCOCc1nc2c(N)nc3ccccc3c2n1C[C@@H](C)O` (single isomer, unassigned) [Example 1B]: the figures for the concentration giving a half-maximal response (EC50) at hTLR7 (setting [2]) and on hTLR8 (setting [3]) were 1270 nM and 3600 nM, respectively. At hTLR7, the “TLR 7 selectivity TLR 8/TLR 7” value amounted to 2.8. The same compound yielded a CC50 at 1 day in data set [1] of over 30000 nM.
The matching figures for `CCOCc1nc2c(N)nc3ccccc3c2n1C[C@H](C)O` [Example 1A]: 440 nM, 1080 nM, 2.5 and over 30000 nM.
Consider `CCOCc1nc2c(N)nc3ccccc3c2n1C[C@H](C)O[P@@](=O)(N[C@@H](C)C(=O)OC(C)C)Oc1ccccc1` (single isomer, unassigned) [Example 2B], for which the values for the EC50 on hTLR7 and at hTLR8 (setting [4]) were 3030 nM and 77 nM, respectively. Further, the “TLR 8 selectivity TLR 7/TLR 8” value at hTLR8 is on record as 39.4. Besides, in data set [1], the CC50 at 1 day was over 30000 nM.
On to `CCOCc1nc2c(N)nc3ccccc3c2n1C[C@@H](C)O[P@@](=O)(N[C@@H](C)C(=O)OCc1ccccc1)Oc1ccccc1` (single isomer, unassigned) [Example 16A], for which the EC50 worked out at 5830 nM at hTLR7 (setting [2]) and 35.4 nM at hTLR8 (setting [3]). Moreover, at hTLR8, the “TLR 8 selectivity TLR 7/TLR 8” value is reported as 165. For the same compound, in data set [1], the CC50 at 1 day was over 30000 nM.
Turning to `CCOCc1nc2c(N)nc3ccccc3c2n1CC(C)O` (stereo not drawn) [Example 1], the 50% effective concentration (EC50) at hTLR7 (setting [2]) turned out to be 666 nM; at hTLR8 (setting [3]), 1590 nM. Also, on hTLR7, the “TLR 7 selectivity TLR 8/TLR 7” value was 2.4. This compound also had a half-maximal cytotoxic concentration (CC50) at 1 day in data set [1] of over 30000 nM.
On to `CCOCc1nc2c(N)nc3ccccc3c2n1C[C@@H](C)O[P@@](=O)(N[C@@H](C)C(=O)OC(C)C)Oc1ccc(C)cc1` (single isomer, unassigned) [Example 9A], for which the EC50 at hTLR7 (setting [2]) turned out to be 9500 nM; at hTLR8 (setting [3]) it was 7.9 nM. In addition, the “TLR 8 selectivity TLR 7/TLR 8” value on hTLR8 is on record as 1202. In data set [1], this compound returned a CC50 at 1 day of over 30000 nM.
Take `CCOCc1nc2c(N)nc3ccccc3c2n1C[C@@H](C)O[P@@](=O)(N[C@@H](C)C(=O)OC(C)C)Oc1cccc(Cl)c1` (single isomer, unassigned) [Example 11A]: the EC50 was determined as 5830 nM on hTLR7 (setting [2]) and 9.1 nM on hTLR8 (setting [3]). Besides, the “TLR 8 selectivity TLR 7/TLR 8” value on hTLR8 was 640. The compound also came in with a cytotoxic concentration (CC50) at 1 day in data set [1] of over 30000 nM.
The matching figures for `CCOCc1nc2c(N)nc3ccccc3c2n1C[C@@H](C)O[P@@](=O)(N[C@@H](C)C(=O)OC(C)(C)C)Oc1ccccc1` (single isomer, unassigned) [Example 14A]: 15800 nM, 366 nM, 43 and over 30000 nM.
Turning to `CCOCc1nc2c(N)nc3ccccc3c2n1C[C@@H](C)O[P@@](=O)(N[C@@H](C)C(=O)OC(C)C)Oc1ccc2ccccc2c1` (single isomer, unassigned) [Example 6A], the half-maximal effective concentration (EC50) at hTLR7 (setting [2]) worked out at 7290 nM; at hTLR8 (setting [3]), 5.6 nM. Besides, the “TLR 8 selectivity TLR 7/TLR 8” value at hTLR8 is reported as 1301. For the same compound, the CC50 at 1 day in data set [1] is over 30000 nM.
Turning to `CCOCc1nc2c(N)nc3ccccc3c2n1C[C@@H](C)O[P@@](=O)(N[C@@H](C)C(=O)OC(C)C)Oc1ccccc1` (single isomer, unassigned) [Example 2A], the concentration for a half-maximal effect (EC50) at hTLR7 was determined as 2800 nM; at hTLR8 (setting [4]), 881 nM. The “TLR 8 selectivity TLR 7/TLR 8” value on hTLR8 was 3.2. This compound displayed a CC50 at 1 day in data set [1] of over 30000 nM.

The values above are taken from patent US20230008368A1, “IMIDAZOQUINOLINE SUBSTITUTED PHOSPHORIC ESTER AGONIST, AND PREPARATION THEREFOR AND APPLICATION THEREOF” (SUZHOU ZELGEN BIOPHARMACEUTICALS CO., LTD., priority 2019, published 2023).
